In patent US20080118475A1, “Model System for Testing the Efficacy of Pharmaceutical Preparation on Inflammatory Processes in the Nervous System” (KEYNEUROTEK AG, priority 2004, published 2008):
Entries after “also recorded” stand apart in the source; their conditions may differ.

System: organo-typical cultures of the hippocampus
Experiment: Inflammation-provoked degeneration of organo-typical hippocampal slice cultures, propidium iodide fluorescence
Format: cell-based, Sprague-Dawley rats
Settings: for protection of the neural tissue against degeneration (propidium iodide staining): reagent incubated over 48 hours together with LPS (200 ηg/ml) and GM-CSF (1 ηg/ml); for degeneration of the tissue / neurons (propidium iodide staining), cytokin in combination with LPS: cytokin plus LPS (200 μm/ml [sic] in the source, 200 ηg/ml), 48 hours, M-CSF 10 ηg/ml, IFNy 30 ηg/ml, GM-CSF 1 ηg/ml
Method: For the preparation of organo-typical cultures of the hippocampus, 7 to 8 day-old Sprague-Dawley rats were used. From the isolated hippocampus of these animals ca. 400 μm thick slices were prepared, each approximately comprising 20 cell layers. […] The slices were able to be cultured in 6-pore culture plates for up to 3 weeks through changing the medium below the membrane.
All the incubations were carried out in a medium that contained a minimum of 50% of essential medium/HEPES, 25% of Hank's balanced salt solution and 25% of heat-inactivated horse serum.
The degeneration of the tissue was rendered visible by means of a propidium iodide-fluorescence of the cells, which, because of the injury sustained, could no longer prevent, […], diffusion into the cell nucleus and staining of the DNA. Consequently, the red fluorescence above a threshold value was evaluated as the signal for the degeneration of cells. The degree of degeneration per slice was expressed as the percentage of the total surface that the red values lay above the threshold.
Here, both reagents were incubated over 48 hours with LPS and GM-CSF. Thus, for working in this assay, both steroidal as well as non-steroidal reagents were used.
Organo-typical cultures were incubated with LPS either alone or in combination with the pro-inflammatory cytokins GM-CSF and M-CSF over 48 hours. The injury to the tissue (cell mortality) was established by means of propidium iodide staining (A) and quantified by means of an automated picture analysis (B).

Molecule | protection of the neural tissue against degeneration (propidium iodide staining) | degeneration of the tissue / neurons (propidium iodide staining), cytokin in combination with LPS | degeneration / injury of the tissue (propidium iodide staining), substance alone (incubated alone over 48 hours)
CC(=O)Oc1ccccc1C(=O)O [acetyl salicylic acid, reference compound] | complete protection of the neural tissue; also recorded: protected |  | 
CC(C)Cc1ccc(C(C)C(=O)O)cc1 (stereo not drawn) [iboprufen, reference compound] | protective activity |  | 
GM-CSF: Granulocyte Macrophage Colony-Stimulating Factor, pro-inflammatory cytokin |  | dramatic degeneration of neurons; also recorded: maximum injury | did not lead to any detectable injury
IFNy: pro-inflammatory cytokin that activates the microglia and can induce MHC expression |  | very strong degeneration of the tissue | 
M-CSF: pro-inflammatory cytokin that activates microglia (protein, UniProt P09603 33-554, looked up) Macrophage colony-stimulating …: EEVSEYCSHMIGSGHLQSLQRLIDSQMETSCQITFEFVDQEQLKDPVCYLKKAFLLVQDIMEDTMRFRDNTPNAIAIVQLQELSLRLKSCFTKDYEEHDKACVRTFYETPLQLLEKVKNVFNETKNLLDKDWNIFSKNCNNSFAECSSQDVVTKPDCNCLYPKAIPSSDPASVSPHQPLAPSMAPVAGLTWEDSEGTEGSSLLPGEQPLHTVDPGSAKQRPPRSTCQSFEPPETPVVKDSTIGGSPQPRPSVGAFNPGMEDILDSAMGTNWVPEEASGEASEIPVPQGTELSPSRPGGGSMQTEPARPSNFLSASSPLPASAKGQQPADVTGTALPRVGPVRPTGQDWNHTPQKTDHPSALLRDPPEPGSPRISSLRPQGLSNPSTLSAQPQLSRSHSSGSVLPLGELEGRRSTRDRRSPAEPEGGPASEGAARPLPRFNSVPLTDTGHERQSEGSFSPQLQESVFHLLVPSVILVLLAVGGLLFYRWRRRSHQEPQRADSPLEQPEGSPLTQDDRQVELPV |  | dramatic degeneration of neurons; also recorded: less precipitous | 
